Measurements from patent US11179372B2, “Isoxazoline solution containing vitamin E for use with sanitized drinking water” (Intervet Inc., priority 2015, dated 2021).

Legend:
[1] = Variation of concentration of vitamin E, Fluralaner in 5 ppm hypochlorite; assay type: physicochemical; details: used at 1:10.000; for Reduction t = 0 to t = 7 in %: 5 ppm ClO-, 40° C./75% RH
Experimental: While in Example 4.3 alpha-tocopherol was used in the pharmaceutical composition at 8.2% w/w, it was now tested at 80% of that value, namely at 6.6% w/w. Pharmaceutical compositions according to the invention were prepared, containing either 8.2 or 6.6% w/w alpha-tocopherol. Also one base composition was prepared without protector. These were diluted 1:10.000 to prepare medicated drinking waters with 1 μg/ml Fluralaner. Next hypochlorite was added to 5 ppm, and 20 ml samples were filled-out in 50 ml glass vials, sealed with a rubber stopper, and stored for 7 days at 40° C./75% RH. The amount of Fluralaner of the three samples was measured at t=0 and at t=7 days using UHPLC. The concentration of the vitamin E in the final test sample was 1:10,000 of 6.6 or 8.2% w/w.

[2] = test system: Northern fowl mite (O. sylviarum); experiment: Efficacy of Fluralaner in medicated drinking water against Northern fowl mite infestation of laying hens; assay type: in vivo, Ornithonyssus sylviarum
Experimental: No vitamin E was present in the concentrated Fluralaner solution used to prepare the medicated drinking water. The effectivity of an oral dosing regimen of Fluralaner was tested by administering medicated drinking water (via gavage) to laying hens, in 2 repeated doses of 0.25, 0.5 or 1.0 mg/kg body weight, administered 7 days apart, and challenging them with infestation by Northern fowl mites, via source birds and natural infestation. The birds were kept in separate pens, at 11 birds per pen. The statistical analysis of results was based on mite count from each bird in the study, using pen as a random factor in the model, and mite counts were performed and recorded for individual birds. Mite vent count reduction of the treated groups compared to the control group was the primary efficacy criterion.

[3] = Residues and withdrawal time in treated birds; assay type: in vivo; details: treated layer birds, oral uptake
[4] = Prevention of degradation by oxidizing sanitizer (hypochlorite) in medicated drinking water; assay type: physicochemical
Experimental: The Fluralaner level was determined using UHPLC. The alpha-tocopherol used was alpha-tocopherol EP (Fluka).
To prepare the test samples, the required amounts of Transcutol and Tween were measured, combined in a beaker at room temperature, and mixed magnetically. Next, when no protector was added, the required amount of Fluralaner was weighed, added, and mixed until complete dissolution, which usually required about 10 minutes, at 70% speed. […] The complete dissolution was verified visually. Next the density of the resulting solution was checked with a Densimeter, at 20° C.
To test the capacity of the different protectors to prevent degradation of Fluralaner in medicated drinking water by an oxidising sanitizer, samples of the pharmaceutical composition as prepared above were diluted to different concentrations, and incubated with different amounts of hypochlorite. Concentrations of Fluralaner in medicated drinking water used were: 1, 5, and 10 μg/ml.
The hypochlorite used was from a 13% sodium hypochlorite solution (Acros Organics), which was prepared into samples with a concentration of hypochlorite of: 0, 0.5, 2, 5, or 10 ppm, wherein 1 ppm equals 20 μM. Samples without hypochlorite served as positive controls. While the dilutions of hypochlorite were made in purified water, one additional sample at 5 ppm hypochlorite was prepared in standard tap water (Angers, France). Control samples were tested at day zero, all others were tested after an incubation for 7 days at 40° C./75% RH.
The concentration of protector in the test sample was dependent of the dilution factor of the concentrated Fluralaner composition applied: 1:10,000, 1:2000, or 1:1000, respectively.

[5] = Vitamin E 0 % w/w in pharm. comp.
[6] = Vitamin E 6.6 % w/w in pharm. comp.
[7] = Vitamin E 8.2 % w/w in pharm. comp.
[8] = Conc. Fluralaner 1 μg/ml, hypochlorite 0 ppm, T = 0
[9] = Conc. Fluralaner 1 μg/ml, hypochlorite 0 ppm, T = 7 d at 40° C./75% RH
[10] = Conc. Fluralaner 1 μg/ml, hypochlorite 0.5 ppm, T = 7 d at 40° C./75% RH
[11] = Conc. Fluralaner 1 μg/ml, hypochlorite 2 ppm, T = 7 d at 40° C./75% RH
[12] = Conc. Fluralaner 1 μg/ml, hypochlorite 5 ppm (tapw.), T = 7 d at 40° C./75% RH
[13] = Conc. Fluralaner 1 μg/ml, hypochlorite 5 ppm, T = 7 d at 40° C./75% RH
[14] = Conc. Fluralaner 1 μg/ml, hypochlorite 10 ppm, T = 7 d at 40° C./75% RH
[15] = Conc. Fluralaner 5 μg/ml, hypochlorite 0 ppm, T = 0
[16] = Conc. Fluralaner 5 μg/ml, hypochlorite 0 ppm, T = 7 d at 40° C./75% RH
[17] = Conc. Fluralaner 5 μg/ml, hypochlorite 0.5 ppm, T = 7 d at 40° C./75% RH
[18] = Conc. Fluralaner 5 μg/ml, hypochlorite 2 ppm, T = 7 d at 40° C./75% RH
[19] = Conc. Fluralaner 5 μg/ml, hypochlorite 5 ppm (tapw.), T = 7 d at 40° C./75% RH
[20] = Conc. Fluralaner 5 μg/ml, hypochlorite 5 ppm, T = 7 d at 40° C./75% RH
[21] = Conc. Fluralaner 5 μg/ml, hypochlorite 10 ppm, T = 7 d at 40° C./75% RH
[22] = Conc. Fluralaner 10 μg/ml, hypochlorite 0 ppm, T = 0
[23] = Conc. Fluralaner 10 μg/ml, hypochlorite 0 ppm, T = 7 d at 40° C./75% RH
[24] = Conc. Fluralaner 10 μg/ml, hypochlorite 0.5 ppm, T = 7 d at 40° C./75% RH
[25] = Conc. Fluralaner 10 μg/ml, hypochlorite 2 ppm, T = 7 d at 40° C./75% RH
[26] = Conc. Fluralaner 10 μg/ml, hypochlorite 5 ppm (tapw.), T = 7 d at 40° C./75% RH
[27] = Conc. Fluralaner 10 μg/ml, hypochlorite 5 ppm, T = 7 d at 40° C./75% RH
[28] = Conc. Fluralaner 10 μg/ml, hypochlorite 10 ppm, T = 7 d at 40° C./75% RH

Cc1cc(C2=NOC(c3cc(Cl)cc(Cl)c3)(C(F)(F)F)C2)ccc1C(=O)NCC(=O)NCC(F)(F)F (stereo not shown) [Fluralaner]
Fluralaner conc. after incubation in 5 ppm ClO- at 40° C./75% RH, for t = 0 d [1, 5]: 0.80 µg/mL
Fluralaner conc. after incubation in 5 ppm ClO- at 40° C./75% RH, for t = 7 d [1, 5]: 0.15 µg/mL
Reduction t = 0 to t = 7 in % [1, 5]: 81%
Fluralaner conc. after incubation in 5 ppm ClO- at 40° C./75% RH, for t = 0 d [1, 6]: 0.91 µg/mL
Fluralaner conc. after incubation in 5 ppm ClO- at 40° C./75% RH, for t = 7 d [1, 6]: 0.49 µg/mL
Reduction t = 0 to t = 7 in % [1, 6]: 46%
Fluralaner conc. after incubation in 5 ppm ClO- at 40° C./75% RH, for t = 0 d [1, 7]: 0.90 µg/mL
Fluralaner conc. after incubation in 5 ppm ClO- at 40° C./75% RH, for t = 7 d [1, 7]: 0.49 µg/mL
Reduction t = 0 to t = 7 in % [1, 7]: 46%
Duration of efficacy after first treatment administration ([2]; 0.25 mg/kg BW dose group (2 doses, 7 days apart)): up to 19 days
Duration of efficacy after first treatment administration ([2]; 0.5 mg/kg BW dose group (2 doses, 7 days apart)): ≤ 22 days
Duration of efficacy after first treatment administration ([2]; 1.0 mg/kg BW dose group (2 doses, 7 days apart)): ≤ 22 days
Efficacy against O. sylviarum ([2]; 2 single doses of 0.25, 0.5, or 1 mg/kg BW, 7 days apart, oral): significant efficacy
Reductions in mite vent counts, onset ([2]; all treated groups, beginning at day 1): statistically significant reductions
Efficacy against Northern fowl mites (reduction in mite vent count) ([2]; all treated groups, for at least 19 days, untreated source birds in same pen): > 90%
Residue levels in eggs [3]: far below the MRL value
Fluralaner content in medicated drinking water; alpha-tocopherol as protector [4, 8]: 0.91 µg/mL
Fluralaner content in medicated drinking water; no protector [4, 8]: 0.93 µg/mL
Fluralaner content in medicated drinking water; alpha-tocopherol as protector [4, 9]: 0.89 µg/mL
Fluralaner content in medicated drinking water; no protector [4, 9]: 0.92 µg/mL
Fluralaner content in medicated drinking water; alpha-tocopherol as protector [4, 10]: 0.91 µg/mL
Fluralaner content in medicated drinking water; no protector [4, 10]: 0.91 µg/mL
Fluralaner content in medicated drinking water; alpha-tocopherol as protector [4, 11]: 0.92 µg/mL
Fluralaner content in medicated drinking water; no protector [4, 11]: 0.91 µg/mL
Fluralaner content in medicated drinking water; alpha-tocopherol as protector [4, 12]: 0.86 µg/mL
Fluralaner content in medicated drinking water; no protector [4, 12]: 0.13 µg/mL
Fluralaner content in medicated drinking water; alpha-tocopherol as protector [4, 13]: 0.89 µg/mL
Fluralaner content in medicated drinking water; no protector [4, 13]: 0.29 µg/mL
Fluralaner content in medicated drinking water; alpha-tocopherol as protector [4, 14]: 0.05 µg/mL
Fluralaner content in medicated drinking water; no protector [4, 14]: <LoQ
Fluralaner content in medicated drinking water; alpha-tocopherol as protector [4, 15]: 5.52 µg/mL
Fluralaner content in medicated drinking water; no protector [4, 15]: 5.50 µg/mL
Fluralaner content in medicated drinking water; alpha-tocopherol as protector [4, 16]: 5.45 µg/mL
Fluralaner content in medicated drinking water; no protector [4, 16]: 5.51 µg/mL
Fluralaner content in medicated drinking water; alpha-tocopherol as protector [4, 17]: 5.52 µg/mL
Fluralaner content in medicated drinking water; no protector [4, 17]: 5.52 µg/mL
Fluralaner content in medicated drinking water; alpha-tocopherol as protector [4, 18]: 5.52 µg/mL
Fluralaner content in medicated drinking water; no protector [4, 18]: 5.50 µg/mL
Fluralaner content in medicated drinking water; alpha-tocopherol as protector [4, 19]: 5.42 µg/mL
Fluralaner content in medicated drinking water; no protector [4, 19]: 4.43 µg/mL
Fluralaner content in medicated drinking water; alpha-tocopherol as protector [4, 20]: 5.49 µg/mL
Fluralaner content in medicated drinking water; no protector [4, 20]: 5.31 µg/mL
Fluralaner content in medicated drinking water; alpha-tocopherol as protector [4, 21]: 5.56 µg/mL
Fluralaner content in medicated drinking water; no protector [4, 21]: 1.54 µg/mL
Fluralaner content in medicated drinking water; alpha-tocopherol as protector [4, 22]: 10.14 µg/mL
Fluralaner content in medicated drinking water; no protector [4, 22]: 10.10 µg/mL
Fluralaner content in medicated drinking water; alpha-tocopherol as protector [4, 23]: 10.01 µg/mL
Fluralaner content in medicated drinking water; no protector [4, 23]: 10.07 µg/mL
Fluralaner content in medicated drinking water; alpha-tocopherol as protector [4, 24]: 10.10 µg/mL
Fluralaner content in medicated drinking water; no protector [4, 24]: 10.03 µg/mL
Fluralaner content in medicated drinking water; alpha-tocopherol as protector [4, 25]: 10.10 µg/mL
Fluralaner content in medicated drinking water; no protector [4, 25]: 10.03 µg/mL
Fluralaner content in medicated drinking water; alpha-tocopherol as protector [4, 26]: 9.94 µg/mL
Fluralaner content in medicated drinking water; no protector [4, 26]: 8.69 µg/mL
Fluralaner content in medicated drinking water; alpha-tocopherol as protector [4, 27]: 9.99 µg/mL
Fluralaner content in medicated drinking water; no protector [4, 27]: 9.97 µg/mL
Fluralaner content in medicated drinking water; alpha-tocopherol as protector [4, 28]: 10.05 µg/mL
Fluralaner content in medicated drinking water; no protector [4, 28]: 5.05 µg/mL
